# From ChEMBL document CHEMBL1201862, “PubChem BioAssay data set” (2004)
#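 Exposure lasted 48 hours, with cells grown in 96-well plates and compounds tested at five concentrations. GI50: concentration for 50% inhibition of growth.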 Activity calls are given as the source filed them. Rule as the data show it: active = GI50 up to about 1.1 µM and inactive = higher.
# Columns and labels:
# Assay in all cases: growth of human tumour cells (NCI), 48 h
# SK-MEL-5 = system: SK-MEL-5
# SK-MEL-28 = system: SK-MEL-28
# KM12 = system: KM12
# A498 = system: A498
# HL-60 = system: HL-60
# RXF 393 = system: RXF 393
# SF-268 = system: SF-268
# 786-0 = system: 786-0
# LOX IMVI = system: LOX IMVI
# COLO 205 = system: COLO 205
# U-251 = system: U-251
# OVCAR-5 = system: OVCAR-5
# NCI-H226 = system: NCI-H226
# SR = system: SR
SMILES,GI50 (SK-MEL-5),GI50 (SK-MEL-28),GI50 (KM12),GI50 (A498),GI50 (HL-60),GI50 (RXF 393),GI50 (SF-268),GI50 (786-0),GI50 (LOX IMVI),GI50 (COLO 205),GI50 (U-251),GI50 (OVCAR-5),GI50 (NCI-H226),GI50 (SR)
CCc1cccc(C(C)C)c1N1C(=O)C(=O)C(c2nc3ccccc3s2)C(=O)C1=O,21.8 µM (inactive),> 50 µM (inactive),> 44.7 µM (inactive),> 50 µM (inactive),12.3 µM (inactive),> 50 µM (inactive),> 50 µM (inactive),> 50 µM (inactive),> 46.2 µM (inactive),16.8 µM (inactive),> 48.3 µM (inactive),> 50 µM (inactive),,
Cc1cn2cc(-c3ccncc3)nc2s1,> 100 µM (inactive),> 100 µM (inactive),> 100 µM (inactive),> 100 µM (inactive),> 19.8 µM (inactive),,> 100 µM (inactive),> 100 µM (inactive),> 49.8 µM (inactive),> 71.8 µM (inactive),> 100 µM (inactive),> 100 µM (inactive),> 100 µM (inactive),
c1ccc(P(=Nc2ccccc2N=P(c2ccccc2)(c2ccccc2)c2ccccc2)(c2ccccc2)c2ccccc2)cc1,0.401 µM (active),> 100 µM (inactive),0.834 µM (active),0.986 µM (active),1.08 µM (active),1.05 µM (active),> 100 µM (inactive),0.555 µM (active),0.612 µM (active),1.65 µM (inactive),0.326 µM (active),1.53 µM (inactive),0.337 µM (active),
O=C(N/C(=C\c1ccc(/C=C(\NC(=O)c2ccccc2)c2nc3cc([N+](=O)[O-])ccc3[nH]2)cc1)c1nc2cc([N+](=O)[O-])ccc2[nH]1)c1ccccc1,22.2 µM (inactive),14.8 µM (inactive),,26 µM (inactive),,24 µM (inactive),22.1 µM (inactive),42.4 µM (inactive),28.8 µM (inactive),29.8 µM (inactive),54.6 µM (inactive),> 100 µM (inactive),,
COc1ccc(/C(C#N)=C2/O/C(=N/N)C(c3ccc(OC)c(OC)c3)C2=O)cc1OC (configuration not stated),> 100 µM (inactive),> 100 µM (inactive),> 100 µM (inactive),,> 100 µM (inactive),,> 100 µM (inactive),> 100 µM (inactive),> 100 µM (inactive),,> 100 µM (inactive),,> 100 µM (inactive),> 100 µM (inactive)
c1ccc2c(c1)nnn1c3cnccc3nc21,52.6 µM (inactive),> 100 µM (inactive),23.9 µM (inactive),94 µM (inactive),8.87 µM (inactive),24.7 µM (inactive),37.8 µM (inactive),32.4 µM (inactive),39.1 µM (inactive),20.7 µM (inactive),28.3 µM (inactive),63.8 µM (inactive),,
COc1cccc(NC(=O)/C(CC(=O)CC(c2ccccc2)c2c(O)c3ccccc3oc2=O)=N\NC(C)(C)C)c1OC (configuration not stated),> 100 µM (inactive),> 100 µM (inactive),34 µM (inactive),> 100 µM (inactive),22.5 µM (inactive),,> 100 µM (inactive),> 100 µM (inactive),36.9 µM (inactive),> 100 µM (inactive),> 100 µM (inactive),> 100 µM (inactive),,
O=C(Cc1nc2ccc([N+](=O)[O-])cc2nc1O)C(=O)Nc1ccccc1[N+](=O)[O-],> 100 µM (inactive),> 100 µM (inactive),86.3 µM (inactive),> 100 µM (inactive),> 100 µM (inactive),> 100 µM (inactive),> 100 µM (inactive),> 100 µM (inactive),60.7 µM (inactive),> 100 µM (inactive),,> 100 µM (inactive),> 100 µM (inactive),
COC(=O)c1cc(Cl)ccc1NC(=O)c1ccc([N+](=O)[O-])cc1,47.5 µM (inactive),28.2 µM (inactive),19.8 µM (inactive),17.5 µM (inactive),27.4 µM (inactive),21.4 µM (inactive),,14.6 µM (inactive),,,7 µM (inactive),> 100 µM (inactive),20.3 µM (inactive),
